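Interpolation was linear, between the two tested concentrations surrounding the appropriate level; five concentrations were tested over 48 hours in 96-well plates. GI50 marks 50% less growth.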 Calls of active or inactive are those of the source. No stated cut-off is given here; in the data, active = GI50 up to about 1.1 µM and inactive = higher.

Some test systems named below: A549; CCRF-CEM; COLO 205; HCC 2998; HL-60; HT-29; Hs-578T; LOX IMVI; M14; MDA-MB-435; Malme-3M; NCI-H23; OVCAR-3; OVCAR-4; OVCAR-5; SF-268; SF-539; SK-MEL-5; SW-620; T47D.
Test in all cases: NCI-60 cell line screen, 48 h

With `COc1ccc(CCN2C(=O)C=CC2=O)cc1OC`, the GI50 is 23 µM (inactive) with A549; 1.85 µM (inactive) in the assay on CCRF-CEM; 1.83 µM (inactive) with COLO 205; 17.4 µM (inactive) in the assay on HCC 2998; 8.39 µM (inactive) with HL-60; 6.31 µM (inactive) with HT-29. Moreover, the GI50 was 32.4 µM (inactive) in the assay on Hs-578T; 18.5 µM (inactive) in the assay with LOX IMVI; 9.84 µM (inactive) with M14; 17.5 µM (inactive) with MDA-MB-435; 13.8 µM (inactive) with Malme-3M; 22 µM (inactive) in the assay on NCI-H23. Also, the GI50 is 18 µM (inactive) in the assay on OVCAR-3; 1.88 µM (inactive) with OVCAR-4; 18.4 µM (inactive) in the assay on OVCAR-5; 22.1 µM (inactive) in the assay on SF-268; 17.3 µM (inactive) with SF-539; 17.3 µM (inactive) in the assay on SK-MEL-5. For the same compound, the GI50 in the assay on SW-620 is 2.28 µM (inactive); in the assay on T47D, 7.16 µM (inactive).

In the case of `C[C@H]1CC(=O)C[C@@H]2CC[C@@H]3[C@H](CC[C@]4(C)C(OC(=O)c5cccc6c(=O)c7ccccc7[nH]c56)CC[C@@H]34)[C@]21C` (stereo not given in full), the GI50 in the assay on A549 was 23.2 µM (inactive); in the assay with CCRF-CEM, 23.8 µM (inactive); with COLO 205, 22 µM (inactive); in the assay with HCC 2998 it was 47 µM (inactive); with HL-60 it was 14.3 µM (inactive); in the assay on HT-29, 32.5 µM (inactive). The GI50 in the assay with Hs-578T is 46.8 µM (inactive); with LOX IMVI, 31.2 µM (inactive); in the assay with M14 it was 30.6 µM (inactive); in the assay with MDA-MB-435, 36.4 µM (inactive); in the assay with Malme-3M, 92.5 µM (inactive); with NCI-H23, 30.6 µM (inactive). Further, the GI50 in the assay with OVCAR-3 is 47.2 µM (inactive); with OVCAR-4, 26.1 µM (inactive); in the assay on OVCAR-5, > 100 µM (inactive); in the assay with SF-268, 57.5 µM (inactive); with SF-539 it was > 100 µM (inactive); with SK-MEL-5 it was 16 µM (inactive). Moreover, the GI50 in the assay on SW-620 was 55.5 µM (inactive); in the assay with T47D, 32.7 µM (inactive).

As for `CC1=CC(=O)c2cccc(NC3=NCCO3)c21`, the GI50 in the assay with A549 is 81.7 µM (inactive); in the assay on CCRF-CEM, 42 µM (inactive); in the assay with COLO 205, 41.1 µM (inactive); with HCC 2998 it was 33.4 µM (inactive); with HL-60, 19.7 µM (inactive); in the assay with HT-29 it was 34 µM (inactive). The GI50 in the assay on Hs-578T is 76.9 µM (inactive); with LOX IMVI, 37.8 µM (inactive); in the assay on M14, 47.3 µM (inactive); in the assay with MDA-MB-435, 31.6 µM (inactive); in the assay with Malme-3M, 30.6 µM (inactive); with NCI-H23, 43.5 µM (inactive). Besides, the GI50 with OVCAR-3 is 25.4 µM (inactive); in the assay with OVCAR-4, 78.7 µM (inactive); in the assay on OVCAR-5, > 100 µM (inactive); in the assay on SF-268, > 100 µM (inactive); in the assay on SF-539, 46.8 µM (inactive); in the assay on SK-MEL-5, 23.2 µM (inactive). Further, the GI50 in the assay with SW-620 was > 100 µM (inactive); in the assay with T47D, 68.7 µM (inactive).

Consider `CC(C)(CO[C@H]1C[C@H]2CC[C@@]1(C)C2(C)C)[N+](=O)[O-]`, for which the GI50 in the assay on A549 was 25.5 µM (inactive); in the assay on CCRF-CEM, 18.8 µM (inactive); in the assay on COLO 205, 15.6 µM (inactive); in the assay with HCC 2998, 2.07 µM (inactive); in the assay with HL-60 it was 0.0363 µM (active); in the assay with HT-29, 13 µM (inactive). The GI50 in the assay with Hs-578T is 27.4 µM (inactive); with LOX IMVI it was 18.1 µM (inactive); with M14 it was 13.3 µM (inactive); in the assay with MDA-MB-435, 18.8 µM (inactive); with Malme-3M, 20.3 µM (inactive); in the assay on NCI-H23 it was 25.9 µM (inactive). Moreover, the GI50 was 22.8 µM (inactive) in the assay on OVCAR-3; 30.3 µM (inactive) with OVCAR-4; 16.8 µM (inactive) in the assay on OVCAR-5; 33 µM (inactive) in the assay on SF-268; 16.4 µM (inactive) with SF-539; 17.3 µM (inactive) in the assay with SK-MEL-5. Besides, the figures for the GI50 in the assay with SW-620 and with T47D were 22.2 µM (inactive) and 19.6 µM (inactive), respectively.

In the case of `S=C1NCCN1C(=S)Nc1ccccc1`, the GI50 in the assay with A549 is 44.1 µM (inactive); in the assay with CCRF-CEM it was 62.2 µM (inactive); in the assay with COLO 205, 71.6 µM (inactive); in the assay on HCC 2998, 65.5 µM (inactive); in the assay on HL-60, > 100 µM (inactive); in the assay with HT-29, > 100 µM (inactive). Besides, the GI50 in the assay on Hs-578T was 84.1 µM (inactive); with LOX IMVI, > 100 µM (inactive); with M14 it was 61.5 µM (inactive); with MDA-MB-435, 46.5 µM (inactive); with Malme-3M it was > 100 µM (inactive); in the assay on NCI-H23, 60.4 µM (inactive). The GI50 with OVCAR-3 is 90.8 µM (inactive); in the assay with OVCAR-4 it was 21.9 µM (inactive); with OVCAR-5 it was > 100 µM (inactive); with SF-268, 99.5 µM (inactive); with SF-539, 46.3 µM (inactive); in the assay on SK-MEL-5, > 100 µM (inactive). Also, the figures for the GI50 in the assay on SW-620 and with T47D were > 100 µM (inactive) and 40.1 µM (inactive), respectively.

As to `O=c1cnn(C2OC(CO)C(O)C(F)C2O)c(=O)[nH]1` (stereo not given), the GI50 with A549, in the assay with CCRF-CEM, with COLO 205, in the assay with HCC 2998, with HL-60 and with HT-29 was > 100 µM (inactive) throughout. Further, the GI50 in the assay on Hs-578T, in the assay with LOX IMVI, in the assay with M14, in the assay with MDA-MB-435, in the assay with Malme-3M and in the assay with NCI-H23 was > 100 µM (inactive) each time. The GI50 with OVCAR-3, in the assay with OVCAR-4, with OVCAR-5, in the assay on SF-268, with SF-539 and with SK-MEL-5 was > 100 µM (inactive) each time. Besides, the GI50 with SW-620 and in the assay with T47D was > 100 µM (inactive) throughout.

Turning to `Cc1nc(Nc2ccc(Cl)cc2Cl)sc1C(=O)Nc1ccccc1`, the GI50 with A549 is 36.6 µM (inactive); with CCRF-CEM, 34.1 µM (inactive); with COLO 205 it was 26.2 µM (inactive); with HCC 2998 it was 72.1 µM (inactive); with HL-60, > 10 µM (inactive); in the assay on HT-29 it was 35.3 µM (inactive). Also, the GI50 in the assay on Hs-578T is 47 µM (inactive); in the assay on LOX IMVI, 23.4 µM (inactive); in the assay on M14, 80.9 µM (inactive); with MDA-MB-435 it was 42.2 µM (inactive); in the assay on Malme-3M it was > 100 µM (inactive); in the assay on NCI-H23 it was 46 µM (inactive). In addition, the GI50 is 97.1 µM (inactive) with OVCAR-3; 73.6 µM (inactive) in the assay with OVCAR-4; > 100 µM (inactive) with OVCAR-5; 77.6 µM (inactive) with SF-268; > 100 µM (inactive) with SF-539; 37.9 µM (inactive) in the assay with SK-MEL-5. In addition, the GI50 was > 100 µM (inactive) in the assay with SW-620 and 22.4 µM (inactive) with T47D.

With `CC(C)CC(=O)NC(Nc1ccc(S(=O)(=O)Nc2ncccn2)cc1)(C(F)(F)F)C(F)(F)F`, the GI50 in the assay with A549, in the assay with CCRF-CEM, with COLO 205, in the assay with HCC 2998, with HL-60 and in the assay with HT-29 was > 100 µM (inactive) throughout. In addition, the GI50 in the assay on Hs-578T, in the assay with LOX IMVI, with M14, in the assay with MDA-MB-435, in the assay with Malme-3M and with NCI-H23 was > 100 µM (inactive) throughout. For the same compound, the GI50 with OVCAR-3, in the assay on OVCAR-4, in the assay with OVCAR-5, with SF-268, in the assay with SF-539 and with SK-MEL-5 was > 100 µM (inactive) in each case. Also, the GI50 with SW-620 and in the assay with T47D was > 100 µM (inactive) in each case.

`COc1ccc(CSC2=C(C#N)C(=O)NC3(CCCCC3)S2)cc1`: the GI50 with A549 was > 83.8 µM (inactive); in the assay with CCRF-CEM, 2.66 µM (inactive); with COLO 205 it was > 61.8 µM (inactive); in the assay on HCC 2998, 28.2 µM (inactive); in the assay on HL-60, 3.63 µM (inactive); in the assay with HT-29 it was 38.1 µM (inactive). Also, the GI50 was 41.9 µM (inactive) in the assay on Hs-578T; 30.1 µM (inactive) in the assay on LOX IMVI; 42.2 µM (inactive) with M14; 19 µM (inactive) in the assay with MDA-MB-435; 54.5 µM (inactive) with Malme-3M; 48.8 µM (inactive) in the assay on NCI-H23. The GI50 in the assay with OVCAR-3 is 35.2 µM (inactive); with OVCAR-4 it was 36.6 µM (inactive); in the assay with OVCAR-5, > 100 µM (inactive); in the assay with SF-268, 47.1 µM (inactive); with SF-539 it was > 56.6 µM (inactive); in the assay with SK-MEL-5, 42.5 µM (inactive). For the same compound, the GI50 in the assay on SW-620 is 32.6 µM (inactive); in the assay on T47D it was 27.5 µM (inactive).

With `CC(C)Cc1c(C#N)c(C#N)c(N)n1Cc1ccccc1`, the GI50 in the assay on A549, in the assay with CCRF-CEM, with COLO 205, in the assay on HCC 2998, in the assay on HL-60 and in the assay on HT-29 was > 100 µM (inactive) each time. Further, the GI50 with Hs-578T, in the assay on LOX IMVI, in the assay on M14, with MDA-MB-435, in the assay with Malme-3M and in the assay with NCI-H23 was > 100 µM (inactive) in each case. Besides, the GI50 in the assay with OVCAR-3, in the assay with OVCAR-4, in the assay with OVCAR-5, in the assay on SF-268, with SF-539 and in the assay on SK-MEL-5 was > 100 µM (inactive) throughout. In addition, the GI50 in the assay on SW-620 and in the assay with T47D was > 100 µM (inactive) in each case.

These data come from ChEMBL document CHEMBL1201862, “PubChem BioAssay data set” (2004).
